Source: patent US8530423B2, “Anxiolytic compositions containing αs1-casein-derived peptides” (Universite de Lorraine, priority 2008, dated 2013)
Read-outs that look alike come from different tables or passages of the source. No end group written: not given here.

What was measured:
[1] = literature (ZIOUDROU et al., LOUKAS et al.); cited from earlier work
rat [2] = conditions: PCT/EP2007/063863; cited from earlier work
[3] = target: angiotensin-I converting enzyme (Homo sapiens, UniProt P12821); conditions: literature (MARUYAMA et al.); cited from earlier work
Wistar rat [4] = experiment: Elevated cross maze test; type: in vivo; conditions: for number of entries into the open arms / time spent in the open arms: p<0.05
Description: The elevated cross maze test enables the density of the exploratory behavior in a new aversive situation to be measured [PELLOW et al., 1985 (16)]. The experiment exploits the conflict, in rodents, between the fear of open spaces and the desire to explore a new environment. The rat, placed at the center of the device, is forced to explore its environment. The open arms constitute an anxiety-producing environment, while this is not the case for the closed arms. The number of entries into all of the arms, the number of entries into the open arms, the number of entries into the closed arms, the time spent in the open arms, and the latency of entry into the first open arm constitute parameters reflecting the degree of anxiety of the animal.
The elevated cross maze, made of wood, consists of four branches at 90° to one another. The two open branches (45×10 cm) and the two closed branches (45×10 cm, surrounded by wood plates over a height of 40 cm) are arranged opposite one another. The central square measures 10×10 cm. The open branches are illuminated by a white light with an intensity of 500 lx. The elevated cross maze is located 50 cm from the ground.
The observations took place at between 9 and 11 o'clock in the morning in order to minimize the influence of the circadian rhythm. Before each passage through the elevated cross maze, the animal is placed for 10 minutes in an open field in order to stimulate its exploratory behavior. It is then placed in the central square of the elevated cross maze, and observed for 5 minutes. The cross maze is washed with 95% ethanol (v/v) between two passages so as to remove odors.
The animals receive their respective treatment intraperitoneally one-half hour before being placed in the open field.

Wistar rat [5] = experiment: Light/dark box test; type: in vivo; conditions: for time spent in the familiar compartment / time spent in the unfamiliar, aversive compartment: p<0.05, n=12
Description: The light/dark tests are based on the innate aversion of rodents for strongly illuminated environments and on their spontaneous exploratory behavior in response to mild stress factors such as a new environment and light. The light/dark box device enables the exploratory behavior of the rodent to be studied with regard to an unfamiliar aversive compartment (strongly illuminated with white light) after habituation in a non-aversive compartment (dark), which then becomes familiar [BOURIN and HASCOET, 2003 (17)]. Classic anxiolytics can be detected by using this device.
The light/dark box measures 65×49×35 cm (h×L×l) and is separated into two identical compartments by a plate with three 8×8-cm doors. The ground is covered with sawdust. Each rat is placed for 24 hours in the rear compartment of the box, and the doors communicating with the front compartment are made inaccessible. The rear compartment thus becomes the familiar compartment. The animal is fed and hydrated ad libitum. On the day of the test, the rat, after treatment, is again placed in the familiar compartment and the doors communicating with the front compartment (unfamiliar) are made accessible so that the animal can freely explore the environment. The unfamiliar compartment is made aversive by illumination with white light having an intensity of 1500 lx. The animals are observed for 10 minutes and the time spent in each of the compartments is measured.
The animals receive their respective treatments intraperitoneally one-half hour before the communication between the familiar compartment and the unfamiliar compartment is opened.

rat [6] = experiment: in vivo behavioral tests in the rat; conditions: this application
[7] = EP 0714910; cited from earlier work
[8] = vehicle animals compared with animals treated 1 mg/kg intraperitoneally, n=15
[9] = vehicle animals compared with animals treated 1 mg/kg intraperitoneally
[10] = 0.5 mg/kg i.p. versus diazepam 1 mg/kg i.p.
[11] = 0.5 mg/kg intraperitoneally, Wistar rat
[12] = vehicle animals compared with animals treated 0.5 mg/kg intraperitoneally, n=15
[13] = vehicle animals compared with animals treated 0.5 mg/kg intraperitoneally

angiotensin-I converting enzyme, sequence (P12821 30-1306): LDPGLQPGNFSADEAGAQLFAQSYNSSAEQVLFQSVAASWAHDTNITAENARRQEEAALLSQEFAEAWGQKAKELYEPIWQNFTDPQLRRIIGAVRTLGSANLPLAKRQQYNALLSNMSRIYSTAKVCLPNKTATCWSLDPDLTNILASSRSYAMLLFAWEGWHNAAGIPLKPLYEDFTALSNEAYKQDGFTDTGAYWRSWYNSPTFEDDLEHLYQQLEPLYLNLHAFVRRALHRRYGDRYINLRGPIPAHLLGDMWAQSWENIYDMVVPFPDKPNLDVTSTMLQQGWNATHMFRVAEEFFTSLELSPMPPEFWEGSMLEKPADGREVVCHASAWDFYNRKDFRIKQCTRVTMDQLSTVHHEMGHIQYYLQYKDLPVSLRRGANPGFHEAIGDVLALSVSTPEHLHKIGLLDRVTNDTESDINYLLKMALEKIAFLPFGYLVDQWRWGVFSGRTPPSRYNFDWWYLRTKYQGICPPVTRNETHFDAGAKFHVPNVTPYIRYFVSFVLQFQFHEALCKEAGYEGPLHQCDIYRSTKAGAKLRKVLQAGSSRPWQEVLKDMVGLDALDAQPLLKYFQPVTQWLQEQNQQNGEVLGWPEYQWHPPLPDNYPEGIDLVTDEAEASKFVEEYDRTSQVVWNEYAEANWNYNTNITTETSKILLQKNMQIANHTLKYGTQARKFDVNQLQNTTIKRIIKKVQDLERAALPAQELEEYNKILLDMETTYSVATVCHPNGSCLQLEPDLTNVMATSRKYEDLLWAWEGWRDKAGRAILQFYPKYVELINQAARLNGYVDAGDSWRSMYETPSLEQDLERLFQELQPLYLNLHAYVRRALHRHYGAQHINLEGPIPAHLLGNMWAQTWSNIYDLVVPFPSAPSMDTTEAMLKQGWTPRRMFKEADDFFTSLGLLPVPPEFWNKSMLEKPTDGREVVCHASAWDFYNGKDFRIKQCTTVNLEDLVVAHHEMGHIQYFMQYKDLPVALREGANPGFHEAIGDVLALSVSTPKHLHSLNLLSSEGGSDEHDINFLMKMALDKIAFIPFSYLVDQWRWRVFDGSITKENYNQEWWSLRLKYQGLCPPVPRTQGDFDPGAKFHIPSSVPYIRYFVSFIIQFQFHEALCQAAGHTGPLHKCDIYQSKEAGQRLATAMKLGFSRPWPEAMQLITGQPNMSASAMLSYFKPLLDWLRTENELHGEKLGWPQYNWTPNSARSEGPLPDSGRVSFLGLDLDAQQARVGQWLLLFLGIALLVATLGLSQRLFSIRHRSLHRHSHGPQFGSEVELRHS

90-95: αs1-casein peptide 90-95 (RYLGYL; UniProt P02662 105-110, looked up, fragment) [reference compound]
in vitro opiate activity [1]: demonstrated in vitro opiate activity

90-96: αs1-casein peptide 90-96 (RYLGYLE; UniProt P02662 105-111, looked up, fragment) [reference compound]
in vitro opiate activity [1]: demonstrated in vitro opiate activity

91-97: peptide 91-97 derived from decapeptide, not containing arginine 100 (YLGYLEQ; UniProt P02662 106-112, looked up, fragment)
anxiolytic properties (rat [2]): show anxiolytic properties

91-98: peptide 91-98 derived from decapeptide, not containing arginine 100 (YLGYLEQL; UniProt P02662 106-113, looked up, fragment)
anxiolytic properties (rat [2]): show anxiolytic properties

91-99: peptide 91-99 derived from decapeptide, not containing arginine 100 (YLGYLEQLL; UniProt P02662 106-114, looked up, fragment)
anxiolytic properties (rat [2]): show anxiolytic properties

194-199: αs1-casein peptide 194-199 (TTMPLW; UniProt P02662 209-214, looked up, fragment)
angiotensin-I converting enzyme inhibition [3]: angiotensin-I converting enzyme inhibitors

CN1C(=O)CN=C(c2ccccc2)c2cc(Cl)ccc21 [diazepam, reference compound]
number of entries into the open arms (Wistar rat [4]; [8]): significantly lower | time spent in the open arms (Wistar rat [4]; [8]): significantly lower | time spent in the familiar compartment (Wistar rat [5]; [9]): increases significantly | time spent in the unfamiliar, aversive compartment (Wistar rat [5]; [9]): significantly lower

Tyr-Leu-Gly-Tyr-Leu (YLGYL; listed as Bos taurus) [αs1-casein fragment 91-95, Pentapeptide corresponding to positions 91-95 of αs1-casein]
difference versus diazepam in the elevated cross maze (Wistar rat [4]; [10]): No significant difference | number of entries into all of the arms (exploratory activity) (Wistar rat [4]; 0.5 mg/kg intraperitoneally one-half hour before open field, compared between treatments, n=15): not significantly different | action in the elevated cross maze test (Wistar rat [4]; [11]): an action similar to that of diazepam, i.e. an increase in the exploration of anxiety-producing zones | number of entries into the open arms (Wistar rat [4]; [12]): significantly lower | time spent in the open arms (Wistar rat [4]; [12]): significantly lower | difference versus diazepam in the light/dark box (Wistar rat [5]; [10]): No significant difference | action in the light/dark box test (Wistar rat [5]; [11]): anxiolytic-type action similar to that of diazepam | time spent in the familiar compartment (Wistar rat [5]; [13]): increases significantly | time spent in the unfamiliar, aversive compartment (Wistar rat [5]; [13]): significantly lower | anxiolytic properties (rat [6]): possible to demonstrate the anxiolytic properties | in vitro opiate activity [1]: practically inactive

YLGYLE [91-96, Hexapeptide corresponding to positions 91-96 of αs1-casein]
anxiolytic properties (rat [6]): possible to demonstrate the anxiolytic properties | in vitro opiate activity [1]: practically inactive

α-casozepine: αs1-casein fragment 91-100, decapeptide from αs1-casein tryptic hydrolysate (YLGYLEQLLR; UniProt P02662 106-115, looked up, fragment)
anxiolytic activity [7]: original anxiolytic activity
